Calls of active or inactive are those of the source.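 How the source made its calls: active means a rising curve with AC50 no higher than ten times the top valid dose of that compound; inconclusive means flat curve between 30 and 70 percent, or failed fit; inactive means the rest.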
Assay: protection from cytokine-driven beta-cell apoptosis, dose response, JC-1 fluorescence, INS-1E, dry powder, set 2 (AID 488867)
Conditions: INS-1E cytokine-induced apoptosis, JC-1 mitochondrial potential, 48 h; at 12 µM (top of the series)
In the case of C[C@@H]1CN([C@@H](C)CO)C(=O)c2cccc(NC(=O)Nc3cccc4ccccc34)c2O[C@H]1CN(C)S(=O)(=O)c1ccc2c(c1)OCCO2, the protection from cytokine-induced depolarization is reported as 29.7% (inactive).

Same assay, conditions: INS-1E cytokine-induced apoptosis, JC-1 mitochondrial potential, 48 h; at 23.5 µM (top of the series)
In the case of COc1ccc(S(=O)(=O)N(C)C[C@@H]2Oc3c(cccc3N(C)C)C(=O)N([C@@H](C)CO)C[C@H]2C)cc1, the protection from cytokine-induced depolarization is reported as -4.35% (inactive).

Same assay, conditions: INS-1E cytokine-induced apoptosis, JC-1 mitochondrial potential, 48 h; at 26 µM (top of the series)
For C[C@@H]1CN([C@@H](C)CO)C(=O)c2cccc(NC(=O)Nc3cccc4ccccc34)c2O[C@H]1CN(C)S(=O)(=O)c1ccc(OC(F)(F)F)cc1, the protection from cytokine-induced depolarization was -2.77% (inactive).
For COc1ccc(S(=O)(=O)N(C)C[C@H]2Oc3c(NC(=O)Nc4cccc5ccccc45)cccc3C(=O)N([C@H](C)CO)C[C@H]2C)cc1, the protection from cytokine-induced depolarization was -8.55% (inactive).
In the case of C[C@@H]1CN([C@@H](C)CO)C(=O)c2cccc(NC(=O)Nc3cccc4ccccc34)c2O[C@H]1CN(C)S(C)(=O)=O, the protection from cytokine-induced depolarization is reported as 2.48% (inactive).
In the case of C[C@@H]1CN([C@@H](C)CO)C(=O)c2cccc(NC(=O)Nc3cccc4ccccc34)c2O[C@H]1CN(C)S(=O)(=O)c1cccs1, the protection from cytokine-induced depolarization is reported as 3.88% (inactive).
In the case of COc1ccc(S(=O)(=O)N(C)C[C@@H]2Oc3c(NC(=O)Nc4cccc5ccccc45)cccc3C(=O)N(C(C)C)C[C@H]2C)cc1, the protection from cytokine-induced depolarization is reported as 36.6% (inactive).
With CNC[C@@H]1Oc2c(NC(=O)Nc3cccc4ccccc34)cccc2C(=O)N([C@@H](C)CO)C[C@H]1C the protection from cytokine-induced depolarization was 9.02% (inactive).
In the case of COc1ccc(S(=O)(=O)N(C)C[C@@H]2Oc3c(NC(=O)C4CCCCC4)cccc3C(=O)N([C@@H](C)CO)C[C@H]2C)cc1, the protection from cytokine-induced depolarization is reported as 2.77% (inactive).
In the case of C[C@@H]1CN([C@@H](C)CO)C(=O)c2cccc(NS(=O)(=O)c3ccccc3)c2O[C@H]1CN(C)Cc1ccc(C(F)(F)F)cc1, the protection from cytokine-induced depolarization is reported as -2.49% (inactive).
For C[C@@H]1CN([C@@H](C)CO)C(=O)c2cccc(NC(=O)Nc3cccc4ccccc34)c2O[C@H]1CN(C)S(=O)(=O)c1ccccc1F, the protection from cytokine-induced depolarization was -16.5% (inactive).
With COc1ccc(S(=O)(=O)N(C)C[C@@H]2Oc3c(NS(=O)(=O)c4ccccc4)cccc3C(=O)N([C@@H](C)CO)C[C@H]2C)cc1 the protection from cytokine-induced depolarization was -2.15% (inactive).
For COc1ccc(NC(=O)N(C)C[C@@H]2Oc3c(NC(=O)Nc4cccc5ccccc45)cccc3C(=O)N([C@@H](C)CO)C[C@H]2C)cc1, the protection from cytokine-induced depolarization was 0.86% (inactive).
In the case of COc1ccc(S(=O)(=O)N(C)C[C@@H]2Oc3c(NC(=O)NC4CCCCC4)cccc3C(=O)N([C@@H](C)CO)C[C@H]2C)cc1, the protection from cytokine-induced depolarization is reported as 7.46% (inactive).
With COc1ccc(S(=O)(=O)N(C)C[C@@H]2Oc3c(NC(=O)c4ccc(-c5nccs5)cc4)cccc3C(=O)N([C@@H](C)CO)C[C@H]2C)cc1 the protection from cytokine-induced depolarization was -3.02% (inactive).
With COc1ccc(S(=O)(=O)N(C)C[C@@H]2Oc3ccc(NC(=O)Nc4cccc5ccccc45)cc3C(=O)N([C@@H](C)CO)C[C@H]2C)cc1 the protection from cytokine-induced depolarization was -12% (inactive).
In the case of COc1ccc(S(=O)(=O)Nc2cccc3c2O[C@@H](CN(C)S(=O)(=O)c2ccc(OC)cc2)[C@H](C)CN([C@@H](C)CO)C3=O)cc1, the protection from cytokine-induced depolarization is reported as 3.9% (inactive).
For COc1ccc(S(=O)(=O)N(C)C[C@@H]2Oc3c(NC(=O)Nc4ccc(C(F)(F)F)cc4)cccc3C(=O)N([C@@H](C)CO)C[C@H]2C)cc1, the protection from cytokine-induced depolarization was -7.36% (inactive).
With COc1ccc(S(=O)(=O)N(C)C[C@@H]2Oc3c(NC(=O)Nc4ccc5c(c4)OCO5)cccc3C(=O)N([C@@H](C)CO)C[C@H]2C)cc1 the protection from cytokine-induced depolarization was 4.22% (inactive).
In the case of C[C@@H]1CN([C@H](C)CO)C(=O)c2cccc(NC(=O)Nc3ccccc3)c2O[C@H]1CN(C)S(=O)(=O)c1ccc(F)cc1, the protection from cytokine-induced depolarization is reported as 4.78% (inactive).
For C[C@@H]1CN([C@@H](C)CO)C(=O)c2cccc(NC(=O)Nc3cccc4ccccc34)c2O[C@H]1CN(C)S(=O)(=O)c1ccc2c(c1)OCCO2, the protection from cytokine-induced depolarization was 26.8% (inactive).
For COc1ccc(S(=O)(=O)N(C)C[C@@H]2Oc3c(NS(C)(=O)=O)cccc3C(=O)N([C@@H](C)CO)C[C@H]2C)cc1, the protection from cytokine-induced depolarization was -7.47% (inactive).

— PubChem BioAssay AID488867 (Broad Institute, 2010)
